# Results as given in article PMC8850458, “The AUTOTAC chemical biology platform for targeted protein degradation via the autophagy-lysosome system” (Nature Communications, 2022).
# Several values for one entry are separate records, joined by “and”; a condition that tells them apart may be missing. Equal values may be shown once.
# How the values were obtained:
# tauP301L [1] = target: T1, tauP301L (Homo sapiens, UniProt P10636, P618L); experiment: WB degradation of tauP301L in SH-SY5Y-tauP301L cells; format: cell-based; conditions: for Tau normalized to GAPDH and control, AVG %: average of N=3
# Summary of the method: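 Lysates in SDS/LDS or Laemmli sample buffer were separated by SDS-PAGE and blotted to PVDF. Target protein was detected with primary antibodies, HRP secondary and ECL on X-ray film, and degradation quantified by band densitometry.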
# [2] = system: tauP301L inclusion bodies; experiment: ICC of TauP301L-GFP autophagic targeting in HeLa cells; format: cell-based; conditions: Fig. 5k, compound +HCQ; for TauP301L-GFP / LC3 colocalization, cells counted per 50 cells (individual replicates): count out of 50 cells
# Experimental: Fig. 5 Selective degradation of pathological aggregation-prone tau species by aggregate-binding AUTOTAC. a–c WB in SH-SY5Y-tauP301L cells treated with PBA-1105, PBA, or YTK-1105 at the indicated concentrations. d Densitometry of (a, b, and c) (n = 3 biologically independent experiments). e–g Same as (a–c) but with Anle138b-F105, Anle138b, or YTK-105. (h) Densitometry of (e, f, and g) (n = 3 biologically independent experiments). i WB in SH-SY5Y-tauP301L cells treated with PBA-1105 (0.1 μM) at the indicated time points. j ICC of HeLa cells expressing recombinant TauP301L-GFP and treated with the indicated compounds (1 μM, 24 h) and HCQ (10 μM, 24 h). Scale bar, 10 μm. k Quantification of (j) (n = 3 biologically independent experiments each counting 50 cells). l In vivo oligomerization assay in SH-SY5Y-tauP301L cells treated with okadaic acid (15 nM, 24 h) and the indicated compounds (0.1 μM, 24 h). m Triton X-100-fractionation assay in SH-SY5Y-tauP301L cells treated with a combination of HCQ (10 μM, 24 h), okadaic acid (15 nM, 24 h) or PBA-1105 (0.1 μM, 24 h). Data are presented as mean values ± SD where relevant. P-values (from a two-sided unpaired t test): **P < 0.00821. Source data are provided with this paper.
# Cells were cultured on coverslips coated with poly-L-lysine (Sigma) to observe cellular localization of proteins. Using 4% paraformaldehyde in PBS (pH 7.4), the cells were fixed for 15 min at room temperature and washed three times for 5 min with PBS. After fixing, the cells were permeabilized with 0.5% Triton X-100 in PBS solution for 15 min and washed three times with PBS for 5 min. The cells were blocked containing 2% BSA in PBS solution for 1 h at room temperature. Subsequently, the cells were incubated with primary antibody diluted in 2% BSA/PBS solution overnight at 4 °C, followed by washing the cells three times for 10 min with PBS and incubated with Alexa Fluor-conjugated secondary antibody diluted in 2% BSA/PBS for 30 min at room temperature. Using a DAPI-containing mounting medium (Vector Laboratories), the coverslips were mounted on glass slides. Confocal images were taken by laser scanning confocal microscope 510 Meta (Zeiss) and analyzed by Zeiss LSM Image Browser (ver. 4.2.0.121). […] Quantification results are shown as mean ± S.D. or S.E.M. of three independent experiments
# p62 = target: T2, p62 (Homo sapiens, UniProt Q13501); experiment: In vitro p62 oligomerization assay; format: biochemical; conditions: HEK293T lysate
# T2 construct: expressed in transfected cells; host or cells: HEK293T, transient; whole lysate used
# Experimental: HEK293T cells were transiently transfected with a plasmid encoding p62-myc/his fusion proteins. Cells were resuspended in lysis buffer [50 mM HEPES (pH 7.4), 0.15 M KCl, 0.1% Nonidet P-40), 10% glycerol, containing a mixture of protease inhibitors and phosphatase inhibitor (Abcam)]. To lyse the cells, 10 cycles of freezing and thawing was done, followed by centrifugation at 13,000 × g for 20 min at 4 °C. Using a BCA assay, the protein concentration of the supernatant was measured. A total of 1 μg of protein was incubated with 1 mM of p62-ZZ ligands in the presence of 100 μM bestatin (Enzo) at room temperature for 2 h. After incubation, each sample was mixed with non-reducing 4X LDS sample buffer, heated at 95 °C for 10 min, and resolved using 4–20% gradient SDS-PAGE (Bio-Rad). To monitor the conversion of p62 monomers into oligomers or aggregates, IB assay was performed using anti-myc antibody.
# tauP301L [3] = target: T1, tauP301L; experiment: RIPA insoluble/soluble fractionation of brains of hTauP301L-BiFC mice, human tau; conditions: for AVG (%) Insoluble hTau / AVG (%) Soluble hTau: control 100
# ACHN cells = experiment: Wound healing assay in ACHN cells; format: cell-based; conditions: wound healing, compared with p62-binding moiety or TBL
# Experimental: To analyze cell migration in two dimensions, U-87 MG or ACHN cells were plated to a monolayer. Cells were scratched with a sterile 10 μl pipette tip and the debris was removed using medium. Cells were treated with compounds and incubated for different time to monitor cell behavior. Photographs were obtained using a microscope at different time point.
# [4] = densitometry, dosage degradation, SH-SY5Y-Tau-TiFC, 1 nM
# [5] = densitometry, dosage degradation, SH-SY5Y-Tau-TiFC, 1 nM, read-out: (Tau normalized to GAPDH) normalized to control, percentage (individual replicates N=1, N=2, N=3)
# [6] = densitometry, dosage degradation, SH-SY5Y-Tau-TiFC, 10 nM
# [7] = densitometry, dosage degradation, SH-SY5Y-Tau-TiFC, 100 nM
# [8] = densitometry, dosage degradation, SH-SY5Y-Tau-TiFC, 1 uM
# [9] = densitometry, dosage degradation, SH-SY5Y-Tau-TiFC, 10uM
# T1 sequence (P10636 1-441 isoform P10636-8 P301L): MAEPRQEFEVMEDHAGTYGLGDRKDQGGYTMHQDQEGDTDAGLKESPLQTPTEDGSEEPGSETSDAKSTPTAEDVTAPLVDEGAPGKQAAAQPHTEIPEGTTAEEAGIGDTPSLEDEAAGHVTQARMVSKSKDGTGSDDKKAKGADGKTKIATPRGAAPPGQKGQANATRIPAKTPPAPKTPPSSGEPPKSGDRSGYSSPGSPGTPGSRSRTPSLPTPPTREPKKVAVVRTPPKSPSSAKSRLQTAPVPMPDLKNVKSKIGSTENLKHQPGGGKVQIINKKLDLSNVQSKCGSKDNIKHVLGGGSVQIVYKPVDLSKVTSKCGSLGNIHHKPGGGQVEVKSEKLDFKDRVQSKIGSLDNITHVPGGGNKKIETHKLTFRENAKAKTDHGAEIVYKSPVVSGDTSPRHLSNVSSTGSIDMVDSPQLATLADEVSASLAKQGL
# T2 sequence (Q13501 whole entry): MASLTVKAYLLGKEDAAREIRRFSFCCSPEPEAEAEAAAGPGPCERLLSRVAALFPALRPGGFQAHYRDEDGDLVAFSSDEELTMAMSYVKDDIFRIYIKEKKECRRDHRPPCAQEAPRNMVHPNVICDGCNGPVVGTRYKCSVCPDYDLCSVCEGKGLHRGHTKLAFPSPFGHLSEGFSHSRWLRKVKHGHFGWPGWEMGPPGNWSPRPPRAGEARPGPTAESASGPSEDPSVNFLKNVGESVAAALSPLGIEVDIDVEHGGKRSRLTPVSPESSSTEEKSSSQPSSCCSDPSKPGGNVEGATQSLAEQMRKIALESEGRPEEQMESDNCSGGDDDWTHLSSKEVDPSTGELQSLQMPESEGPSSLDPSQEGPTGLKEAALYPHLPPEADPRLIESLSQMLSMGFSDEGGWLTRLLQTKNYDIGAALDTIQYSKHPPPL
Structure (SMILES),"Tau normalized to GAPDH and control, AVG % (tauP301L [1]; [4]) [%]",remaining activity at 0.001 µM (tauP301L [1]; [5]) [%],"Tau normalized to GAPDH and control, AVG % (tauP301L [1]; [6]) [%]","Tau normalized to GAPDH and control, AVG % (tauP301L [1]; [7]) [%]","Tau normalized to GAPDH and control, AVG % (tauP301L [1]; [8]) [%]","Tau normalized to GAPDH and control, AVG % (tauP301L [1]; [9]) [%]","TauP301L-GFP / LC3 colocalization, AVG of cells per 50 cells [2]","TauP301L-GFP / LC3 colocalization, percentage AVG [2] [percentage]",p62 self-oligomerization (p62),other results
"O=C(O)CCCc1ccccc1 [4-PBA, 4-phenylbutyric acid]",80.1686,76.8,93.9777,90.7287,84.0643,93.7866,13.6667,27.3333,,"remaining activity at 10 µM (tauP301L [1]; densitometry, dosage degradation, SH-SY5Y-Tau-TiFC, 10uM, read-out: (Tau normalized to GAPDH) normalized to control, percentage (individual replicates N=1, N=2, N=3)): 87%; TauP301L-GFP / LC3 colocalization, cells counted per 50 cells (individual replicates) ([2]; listed as PBA): 12 and 22 and 7"
O=C(CCCc1ccccc1)NCCOCCOCCOCCNCc1ccc(OCc2ccccc2)c(OCc2ccccc2)c1 [PBA-1105],46.0558,45,19.6838,23.7212,30.8722,73.3109,33,66,triggered its self-oligomerization,"DC50 (tauP301L [1]; SH-SY5Y-tauP301L cells): 1 to 10 nM; Dmax,24 hr of tauP301L degradation (tauP301L [1]; SH-SY5Y-tauP301L cells): 100 nM; Tau normalized to GAPDH and control, AVG % (tauP301L [1]; densitometry, dosage degradation, SH-SY5Y-Tau-TiFC, 2.5uM): 20.4143%; remaining activity at 2.5 µM (tauP301L [1]; densitometry, dosage degradation, SH-SY5Y-Tau-TiFC, 2.5uM, read-out: (Tau normalized to GAPDH) normalized to control, percentage (individual replicates N=1, N=2, N=3)): 19.2%; Tau normalized to GAPDH and control, AVG % (tauP301L [1]; densitometry, dosage degradation, SH-SY5Y-Tau-TiFC, 5uM): 12.549%; TauP301L-GFP / LC3 colocalization, cells counted per 50 cells (individual replicates) [2]: 33 and 41 and 25; AVG (%) Insoluble hTau (tauP301L [3]; 20 mg/kg): 43.8995%; AVG (%) Soluble hTau (tauP301L [3]; 20 mg/kg): 87.1538%; AVG (%) Insoluble hTau (tauP301L [3]; 50 mg/kg): 10.5836%; AVG (%) Soluble hTau (tauP301L [3]; 50 mg/kg): 66.7118%; soluble tau species in brain (tauP301L [3]; hTauP301L-BiFC mice, i.p. 20 or 50 mg/kg): little if any reduction; detergent-insoluble tauP301L in brain (tauP301L [3]; hTauP301L-BiFC mice, i.p. 20 or 50 mg/kg, three times per week for one month): marked clearance"
O[C@H](CNCCOCCOCCOc1ccc(-c2c(-c3ccccc3)nn3c(C(F)(F)F)cc(C(F)(F)F)nc23)cc1)COc1ccc(OCc2ccccc2)c(OCCCc2ccccc2)c1 [PHTPP-1304],,,,,,,,,induced self-oligomerization of p62,inhibition of cell migration (ACHN cells): more efficiently inhibited cell migration
